ChEMBL document CHEMBL1201862, “PubChem BioAssay data set” (2004)
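48-hour exposure; five concentrations; linearly interpolated endpoints. GI50 is the concentration that inhibits growth by half.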 Active and inactive are the calls of the source. Rule as the data show it: active = GI50 up to about 1.1 µM and inactive = higher.

How the values were obtained:
Assay in all cases: DTP human tumour cell line panel, 48 h
OVCAR-5 = test system: OVCAR-5
MDA-MB-435 = test system: MDA-MB-435
IGROV-1 = test system: IGROV-1
UO-31 = test system: UO-31
HL-60 = test system: HL-60
CAKI-1 = test system: CAKI-1
SW-620 = test system: SW-620
NCI-H522 = test system: NCI-H522
NCI/ADR-RES = test system: NCI/ADR-RES
HOP-62 = test system: HOP-62
NCI-H460 = test system: NCI-H460
Hs-578T = test system: Hs-578T
RXF 393 = test system: RXF 393
LOX IMVI = test system: LOX IMVI
BT-549 = test system: BT-549
SF-295 = test system: SF-295
U-251 = test system: U-251
K562 = test system: K562
M14 = test system: M14

| SMILES | GI50 (OVCAR-5) | GI50 (MDA-MB-435) | GI50 (IGROV-1) | GI50 (UO-31) | GI50 (HL-60) | GI50 (CAKI-1) | GI50 (SW-620) | GI50 (NCI-H522) | GI50 (NCI/ADR-RES) | GI50 (HOP-62) | GI50 (NCI-H460) | GI50 (Hs-578T) | GI50 (RXF 393) | GI50 (LOX IMVI) | GI50 (BT-549) | GI50 (SF-295) | GI50 (U-251) | GI50 (K562) | GI50 (M14) |
| --- | --- | --- | --- | --- | --- | --- | --- | --- | --- | --- | --- | --- | --- | --- | --- | --- | --- | --- | --- |
| O=C(NCCN1CCOCC1)c1cn2c(ccc3sc4ccccc4c(=O)c32)n1 | 10.7 µM (inactive) | 16.4 µM (inactive) | 22.9 µM (inactive) | > 100 µM (inactive) | 8.02 µM (inactive) | > 100 µM (inactive) | 4.85 µM (inactive) | 10.7 µM (inactive) | 20.6 µM (inactive) | 12.3 µM (inactive) | 4.02 µM (inactive) | 12.2 µM (inactive) | 22 µM (inactive) | 10.3 µM (inactive) | 27.8 µM (inactive) | 11 µM (inactive) | 10 µM (inactive) | 9.86 µM (inactive) |  |
| CC(C)CCC/C(CBr)=C(\Cl)CCl | 15.1 µM (inactive) | 2.36 µM (inactive) | 1.6 µM (inactive) | 3.27 µM (inactive) | 0.103 µM (active) | 5.06 µM (inactive) | 1.5 µM (inactive) | 0.15 µM (active) | 3.27 µM (inactive) | 8.02 µM (inactive) | 5.05 µM (inactive) | 2.45 µM (inactive) | 1.57 µM (inactive) | 0.0728 µM (active) | 1.82 µM (inactive) | 13.3 µM (inactive) | 4.04 µM (inactive) | 0.104 µM (active) | 1.93 µM (inactive) |
| O=C(c1ccc(Cl)cc1Cl)N(Cc1cccnc1)C(=S)N(Cc1cccnc1)C(=O)c1ccc(Cl)cc1Cl | 10.7 µM (inactive) | 17.7 µM (inactive) |  | 4.26 µM (inactive) | 3.55 µM (inactive) | 11.6 µM (inactive) | 3.68 µM (inactive) | 2.94 µM (inactive) | 15.5 µM (inactive) | 2.37 µM (inactive) | 15.5 µM (inactive) | 21 µM (inactive) | 6.43 µM (inactive) | 3.64 µM (inactive) | 3.72 µM (inactive) | 22.2 µM (inactive) | 3.15 µM (inactive) | 3.52 µM (inactive) | 3.01 µM (inactive) |
| CCCCCCCCCCCCC(O)C1CCC(C(O)CCCCCCC(O)CCCCCCCC2=CC(C)OC2=O)O1 (centres undefined) | > 10 µM (inactive) | 2.67 µM (inactive) | 35.5 µM (inactive) | 3.08 µM (inactive) | 3.92 µM (inactive) | 24.9 µM (inactive) | 8.3 µM (inactive) | 16.5 µM (inactive) | 1.84 µM (inactive) | 42.3 µM (inactive) | 12.9 µM (inactive) | 4.4 µM (inactive) | 22.9 µM (inactive) | 13 µM (inactive) | 8.87 µM (inactive) | 3.86 µM (inactive) | 61.9 µM (inactive) | 6.55 µM (inactive) | 19.2 µM (inactive) |
| CC(C)=CCC[C@@H](C)C1=C(O)C(=O)C(C)=C(Nc2ccccc2Cl)C1=O | 45.7 µM (inactive) | 23.9 µM (inactive) | 5.81 µM (inactive) | 12.4 µM (inactive) | 1.22 µM (inactive) | 16 µM (inactive) | 27 µM (inactive) | 6.25 µM (inactive) | 1.82 µM (inactive) | 11.6 µM (inactive) | 14.1 µM (inactive) | 21.7 µM (inactive) | 22.3 µM (inactive) | 8.57 µM (inactive) | 32.4 µM (inactive) | 6.71 µM (inactive) | 16.3 µM (inactive) | 36 µM (inactive) | 21.4 µM (inactive) |
| COc1ccc(-c2c(N)n(-c3cccc(C(=O)O)c3)c(=O)c3cc([N+](=O)[O-])ccc23)cc1 | > 100 µM (inactive) | > 100 µM (inactive) | > 100 µM (inactive) | > 100 µM (inactive) | > 100 µM (inactive) | > 100 µM (inactive) | > 100 µM (inactive) | > 100 µM (inactive) | > 100 µM (inactive) | > 100 µM (inactive) | > 100 µM (inactive) | > 100 µM (inactive) | > 100 µM (inactive) | > 100 µM (inactive) | > 100 µM (inactive) | > 100 µM (inactive) | > 100 µM (inactive) | > 100 µM (inactive) | > 100 µM (inactive) |
| Nc1nc(Cl)cc(NCC2(CO)CC(O)C2)n1 (centres undefined) | > 100 µM (inactive) | > 100 µM (inactive) | > 100 µM (inactive) | > 100 µM (inactive) | > 100 µM (inactive) | > 100 µM (inactive) | > 100 µM (inactive) | > 100 µM (inactive) | > 100 µM (inactive) | > 100 µM (inactive) | > 100 µM (inactive) | > 100 µM (inactive) | > 100 µM (inactive) | > 100 µM (inactive) | > 100 µM (inactive) | > 100 µM (inactive) | > 100 µM (inactive) | > 100 µM (inactive) |  |
| Nc1nc(S)nc2snnc12 | > 100 µM (inactive) | > 100 µM (inactive) | > 100 µM (inactive) | > 100 µM (inactive) | > 100 µM (inactive) | > 100 µM (inactive) | > 100 µM (inactive) | > 100 µM (inactive) | > 100 µM (inactive) | > 100 µM (inactive) | > 100 µM (inactive) | > 100 µM (inactive) | > 100 µM (inactive) | > 100 µM (inactive) | > 100 µM (inactive) | > 100 µM (inactive) | > 10 µM (inactive) | > 100 µM (inactive) |  |
| O=Cc1ccc2ccocc1-2 | > 100 µM (inactive) | > 100 µM (inactive) | > 100 µM (inactive) | > 100 µM (inactive) | > 100 µM (inactive) | > 100 µM (inactive) | > 100 µM (inactive) | > 100 µM (inactive) | > 100 µM (inactive) | > 100 µM (inactive) | > 100 µM (inactive) | > 100 µM (inactive) | > 100 µM (inactive) | > 100 µM (inactive) | > 100 µM (inactive) | > 100 µM (inactive) | > 100 µM (inactive) | > 100 µM (inactive) | > 100 µM (inactive) |
| CC(=O)OCC(=O)O[C@@H]1[C@H]2[C@@H](OC(=O)c3ccccc3)[C@@H](C)C[C@]2(O)[C@H](OC(C)=O)[C@@]2(C)C(OC(C)=O)[C@]1(OC(C)=O)C[C@H]1C(=O)C(C)(C)C[C@@H]12 (some centres undefined) | > 50 µM (inactive) | 26.2 µM (inactive) | > 50 µM (inactive) | > 50 µM (inactive) | 6.46 µM (inactive) | 37.6 µM (inactive) | > 50 µM (inactive) | > 50 µM (inactive) | > 50 µM (inactive) | > 22.6 µM (inactive) | 4.12 µM (inactive) | > 26.9 µM (inactive) | > 50 µM (inactive) | > 50 µM (inactive) | > 35 µM (inactive) | 22.4 µM (inactive) | > 50 µM (inactive) | 9.02 µM (inactive) | > 50 µM (inactive) |
| COC(=O)C1=C(C)NC(C)=C([N+](=O)[O-])C1c1cccc(N=O)c1 (centres undefined) | 16.9 µM (inactive) | 12.7 µM (inactive) | 16 µM (inactive) | 12.1 µM (inactive) | > 100 µM (inactive) | 7.96 µM (inactive) | 3.58 µM (inactive) | 1.66 µM (inactive) | 21 µM (inactive) | 19.2 µM (inactive) | 16.5 µM (inactive) | 15.2 µM (inactive) | 13.8 µM (inactive) | 16.1 µM (inactive) | 16.7 µM (inactive) | 21.7 µM (inactive) | 18 µM (inactive) | 4.47 µM (inactive) | 13.1 µM (inactive) |
| COc1ccc(C(C)NNC(=O)c2cc[n+]([BH2-]C#N)cc2)c(OC)c1 (centres undefined) | > 100 µM (inactive) | > 100 µM (inactive) | > 100 µM (inactive) | > 100 µM (inactive) | > 100 µM (inactive) | > 100 µM (inactive) | > 100 µM (inactive) | > 100 µM (inactive) | > 100 µM (inactive) |  | > 100 µM (inactive) | > 100 µM (inactive) | > 100 µM (inactive) | > 100 µM (inactive) | > 100 µM (inactive) | > 100 µM (inactive) | > 100 µM (inactive) | > 100 µM (inactive) | > 100 µM (inactive) |
| O=C(O)c1c(CC(Cc2ccccc2)C(=O)O)ccc2c1CCC2 (centres undefined) | > 100 µM (inactive) | > 100 µM (inactive) | > 100 µM (inactive) | > 100 µM (inactive) | > 100 µM (inactive) | > 100 µM (inactive) | > 100 µM (inactive) | > 100 µM (inactive) | > 100 µM (inactive) | > 100 µM (inactive) | > 100 µM (inactive) | > 100 µM (inactive) | > 100 µM (inactive) | > 100 µM (inactive) | > 100 µM (inactive) | > 100 µM (inactive) | > 100 µM (inactive) | > 100 µM (inactive) | > 10 µM (inactive) |
| CCOC(=O)C(NC(=O)CC)(Nc1ccc(S(=O)(=O)Nc2onc(C)c2C)cc1)C(F)(F)F (centres undefined) | > 100 µM (inactive) | > 100 µM (inactive) | > 100 µM (inactive) | > 100 µM (inactive) | > 100 µM (inactive) | > 100 µM (inactive) | > 100 µM (inactive) | > 100 µM (inactive) | > 100 µM (inactive) | > 100 µM (inactive) | > 100 µM (inactive) | > 100 µM (inactive) | > 100 µM (inactive) | > 100 µM (inactive) | > 100 µM (inactive) | > 100 µM (inactive) | > 100 µM (inactive) | > 100 µM (inactive) | > 100 µM (inactive) |
| CCCCCCC(O)C(=O)OC1C2C(CC1(C)C)C(O)C13OC1C(O)C1(CO1)[C@@]23C (some centres undefined) | > 100 µM (inactive) | 50.9 µM (inactive) | 43 µM (inactive) | 66.8 µM (inactive) | > 100 µM (inactive) | > 100 µM (inactive) |  | 61.1 µM (inactive) | > 100 µM (inactive) | 58.7 µM (inactive) | > 10 µM (inactive) | 28.2 µM (inactive) | 23 µM (inactive) | 19.2 µM (inactive) | 50.1 µM (inactive) | 71.4 µM (inactive) | 37.1 µM (inactive) | 30.3 µM (inactive) | 40.6 µM (inactive) |
